Like-named read-outs stand apart in the source and are kept apart here.
Columns and labels:
[1] = system: SH-SY5Y cells; assay: Nuclear count from microscopy images (cellular growth and toxicity); note: reference of the scale not given here
[2] = system: endogenous TFE3; assay: TFE3 nuclear translocation, immunocytochemistry high-content imaging; type: cell-based
[3] = system: SH-SY5Y cells; assay: AK (adenylate kinase) release ToxiLight cytotoxicity assay; note: reference of the scale not given here
[4] = system: endogenous TFEB; assay: TFEB nuclear translocation, immunocytochemistry high-content imaging; type: cell-based
[5] = system: SH-SY5Y cells; note: reference of the scale not given here
[6] = PKIS2 primary screen, DQ Red BSA intensity
[7] = PKIS2 primary screen, DQ Red BSA spot count
[8] = PKIS2 primary screening, DQ Red BSA intensity
[9] = PKIS2 primary screening, DQ Red BSA spot count

Row | Structure (SMILES) | Nuclear Count ([1]; PKIS2 primary screening) | TFE3 % ([2]; PKIS2 primary screening) [%] | AK ([3]; PKIS2 primary screening) | TFEB % ([4]; PKIS2 primary screening) [%] | DQ Intensity ([5]; PKIS2 primary screening) | DQ Spot ([5]; PKIS2 primary screening) | Nuclear Count ([1]; PKIS2 primary screen) | TFE3 % ([2]; PKIS2 primary screen) [%] | AK ([3]; PKIS2 primary screen) | TFEB % ([4]; PKIS2 primary screen) [%] | DQ Intensity [5, 6] | DQ Spot [5, 7] | DQ Intensity [5, 8] | DQ Spot [5, 9]
1 | Cl.O=C(Nc1cccc(-c2nn3ncccc3c2-c2ccnc(Nc3cccnc3)n2)c1)c1c(F)cccc1F [UNC10225440A] | 119.73 | 9.74 | 101.41 | 7.43 | 138.59 | 122.41 | – | – | – | – | – | – | – | –
2 | O=c1[nH]cc(-c2ccc(N3CCOCC3)cc2)c2sc(-c3cn[nH]c3)cc12 [UNC10225158A] | – | – | – | – | – | – | 78.86 | 10.30 | 90.80 | 7.60 | 68.86 | 89.34 | – | –
3 | Cc1c(Cn2c(C)nn3c(=O)cc(N4CCOC(C)C4)nc23)cccc1C(F)(F)F (stereo not drawn) [UNC10225005A] | – | – | – | – | – | – | 125.80 | 10.85 | 90.28 | 4.71 | 85.13 | 83.90 | – | –
4 | Fc1ccc(-c2nn3c(OCC(F)(F)F)cccc3c2-c2ccncc2)cc1 [UNC10225249A] | 84.48 | 7.21 | 70.84 | 6.54 | – | – | – | – | – | – | – | – | 115.73 | 116.42
5 | COC(=O)c1cccc(NC(=O)NCCNc2ccnc(Nc3ccc(F)cc3)n2)c1 [GSK1379883] | 115.63 | 3.78 | 105.04 | 8.27 | – | – | – | – | – | – | – | – | 102.62 | 95.44
6 | Cc1ccc(CC(=O)N2CCc3cc(-c4cn(C)c5ncnc(N)c45)ccc32)cc1 [UNC10225490A] | 101.02 | 14.69 | 123.53 | 5.80 | 104.55 | 111.62 | – | – | – | – | – | – | – | –
7 | Cn1cncc1-c1cc2c(Nc3ccc(OCc4ccccc4)cc3)ncnc2cn1 [UNC10225035A] | 109.40 | 18.86 | 76.24 | 6.44 | – | – | – | – | – | – | – | – | 110.55 | 106.44
8 | COc1cc(Nc2nccc(N3CCC(NC(=O)C4COc5ccccc5O4)C3)n2)cc(OC)c1OC (stereo not drawn) [GSK1379761] | 125.75 | 10.33 | 96.01 | 2.44 | – | – | – | – | – | – | – | – | 95.14 | 97.75
9 | CCn1c(-c2nonc2N)nc2cncc(CNC3CCNCC3)c21.Cl [UNC10225211A] | 84.35 | 12.65 | 88.65 | 4.17 | 95.76 | 101.16 | – | – | – | – | – | – | – | –
10 | FC(F)(F)c1cc(Nc2nccc(-c3c(-c4ccc(Cl)cc4)nn4ncccc34)n2)ccc1Cl [UNC10225192A] | 86.86 | 11.31 | 128.18 | 6.87 | 96.76 | 105.34 | – | – | – | – | – | – | – | –
11 | Cc1cc(-c2c(-c3ccc(F)cc3)ncn2CCCN2CCOCC2)nc(N)n1 [UNC10225357A] | 103.52 | 18.76 | 146.53 | 6.16 | 102.69 | 106.97 | – | – | – | – | – | – | – | –
12 | COc1cc2ncn(-c3cc(OCCCc4ccccc4)c(C(N)=O)s3)c2cc1OC [UNC10225450A] | 118.22 | 11.96 | 94.56 | 3.13 | 116.92 | 123.73 | – | – | – | – | – | – | – | –
13 | CCn1c(-c2ccncc2)nc2cnccc21 [UNC10225204A] | 104.87 | 12.32 | 74.70 | 11.18 | 98.92 | 103.23 | – | – | – | – | – | – | – | –
14 | O=C(Nc1ccccc1F)NC1CCN(c2ccnc(Nc3ccc(F)cc3)n2)CC1 [GSK1379800] | 118.12 | 9.18 | 198.42 | 6.86 | – | – | – | – | – | – | – | – | 95.32 | 97.06
15 | COc1cc(Nc2nccc(N3CCC(NC(=O)c4cccc(NC(C)=O)c4)C3)n2)cc(OC)c1OC (stereo not drawn) [GSK1379754] | 143.24 | 7.67 | 115.02 | 3.28 | – | – | – | – | – | – | – | – | 91.71 | 95.86
16 | COc1cccc2c(-c3ccncc3)c(-c3ccc(F)cc3)nn12 [UNC10225305A] | 99.48 | 7.73 | 95.93 | 7.57 | – | – | – | – | – | – | – | – | 96.09 | 98.66
17 | COc1cc(Nc2nccc(N3CCC(NC(=O)Nc4cc(C)ccc4C)C3)n2)cc(OC)c1OC (stereo not drawn) [GSK1379762] | 111.04 | 14.40 | 74.55 | 7.03 | – | – | – | – | – | – | – | – | 110.39 | 96.86
18 | O=C(Nc1ccc2c(c1)OCO2)NC1CCN(c2ccnc(Nc3ccc(F)cc3)n2)C1 (stereo not drawn) [GSK1379724] | 89.10 | 7.39 | 104.22 | 3.86 | – | – | – | – | – | – | – | – | 90.09 | 99.32

Row | Structure (SMILES) | Nuclear Count ([1]; PKIS2 primary screening) | TFE3 % ([2]; PKIS2 primary screening) [%] | AK ([3]; PKIS2 primary screening) | TFEB % ([4]; PKIS2 primary screening) [%] | DQ Intensity ([5]; PKIS2 primary screening) | DQ Spot ([5]; PKIS2 primary screening) | Nuclear Count ([1]; PKIS2 primary screen) | TFE3 % ([2]; PKIS2 primary screen) [%] | AK ([3]; PKIS2 primary screen) | TFEB % ([4]; PKIS2 primary screen) [%] | DQ Intensity [5, 6] | DQ Spot [5, 7] | DQ Intensity [5, 8] | DQ Spot [5, 9]
19 | O=C(NCCNc1ccnc(Nc2ccc(F)cc2)n1)c1cc2ccccc2s1 [GSK1379874] | 89.16 | 18.78 | 71.16 | 5.88 | – | – | – | – | – | – | – | – | 94.35 | 110.46
20 | COc1ccc(NC(=O)Nc2ccc(C)c(-c3ccc(C(=O)Nc4ccncc4)cc3)c2)cc1 [UNC10225445A] | 96.32 | 17.87 | 81.64 | 6.73 | 64.07 | 80.56 | – | – | – | – | – | – | – | –
21 | Cc1cccc(Nc2nc(NCCN)ncc2C(N)=O)c1 [UNC10225029A] | 111.31 | 9.09 | 118.19 | 4.35 | 100.58 | 100.70 | – | – | – | – | – | – | – | –
22 | CNc1ncnc2[nH]ncc12 [UNC10243862A] | 108.49 | 11.00 | 111.70 | 5.21 | 93.16 | 103.80 | – | – | – | – | – | – | – | –
23 | Cn1cc(-c2ccc3c(c2)CCN3C(=O)Cc2ccccc2Cl)c2c(N)ncnc21 [UNC10225172A] | 63.66 | 8.56 | 106.54 | 8.22 | 88.08 | 66.39 | – | – | – | – | – | – | – | –
24 | CC(C)c1cc(-c2ccc3c(N)n[nH]c3c2)nc(N)n1 [GSK2250882] | 92.23 | 20.48 | 82.41 | 3.86 | – | – | – | – | – | – | – | – | 90.98 | 110.65
25 | Cl.c1ccc(Cn2ccc3cc(Nc4ncnc5ccccc45)ccc32)cc1 [UNC10225488A] | 128.88 | 8.10 | 113.68 | 3.41 | – | – | – | – | – | – | – | – | 101.44 | 98.20
26 | CCn1c(-c2ccoc2)nc2cnccc21 [UNC10225474A] | 101.97 | 9.12 | 125.64 | 2.97 | 148.88 | 113.44 | – | – | – | – | – | – | – | –
27 | Cc1ccc(NC(=O)c2cccc(C#N)c2)cc1-c1ccc(C(=O)Nc2ccncc2)cc1 [UNC10225263A] | 75.93 | 18.65 | 76.98 | 13.51 | 106.14 | 106.02 | – | – | – | – | – | – | – | –
28 | Nc1nccc(-c2ccc3c(N)n[nH]c3c2)n1 [GSK1034945] | 141.53 | 14.89 | 117.83 | 3.25 | – | – | – | – | – | – | – | – | 84.11 | 101.09
29 | Nc1nccc2scc(-c3ccc4c(c3)CCN4C(=O)Cc3cc(F)ccc3F)c12 [UNC10225494A] | 97.20 | 17.46 | 74.58 | 3.18 | – | – | – | – | – | – | – | – | 123.47 | 108.12
30 | O=C(O)C(F)(F)F.O=c1[nH]ccc2nc(N[C@@H]3CCNC3)nc(Nc3ccc4c(c3)S(=O)(=O)CC4)c12 [UNC10225451A] | 98.38 | 16.36 | 185.61 | 7.05 | 83.68 | 100.25 | – | – | – | – | – | – | – | –
31 | NCCC(NC(=O)c1cc(Br)c(-c2ccnc3[nH]ccc23)s1)c1ccccc1.O=C(O)C(F)(F)F.O=C(O)C(F)(F)F (stereo not drawn) [UNC10225503A] | 121.43 | 15.14 | 81.01 | 3.19 | – | – | – | – | – | – | – | – | 126.00 | 127.76
32 | CCS(=O)(=O)c1ccc(OC)c(Nc2nccc(-c3c(-c4cccc(NC(=O)c5c(F)cccc5F)c4)nn4ncccc34)n2)c1 [UNC10225342A] | 104.33 | 13.07 | 86.17 | 6.81 | 69.43 | 80.86 | – | – | – | – | – | – | – | –
33 | COc1cccc(NC(=O)Nc2ccc(C)c(-c3ccc(C(=O)Nc4ccncc4)cc3)c2)c1 [UNC10225200A] | 79.81 | 12.37 | 112.40 | 7.95 | 99.65 | 116.14 | – | – | – | – | – | – | – | –
34 | COc1cc2c(Nc3cccc(NC(=O)c4ccccc4)c3)ncnc2cc1OCCCN1CCOCC1 [UNC10225271A] | 122.91 | 10.54 | 98.71 | 3.87 | – | – | – | – | – | – | – | – | 90.70 | 104.52
35 | Oc1ccc2ncnc(Nc3ccc(OCc4ccccc4)cc3)c2c1 [UNC10225360A] | 101.58 | 13.64 | 98.47 | 5.47 | – | – | – | – | – | – | – | – | 120.31 | 114.21

— paper PMC9851200, “Multiparameter phenotypic screening for endogenous TFEB and TFE3 translocation identifies novel chemical series modulating lysosome function” (Autophagy, 2022)
